Values of other authors, collected in patent publication US20030114418A1, “Method for the treatment and prevention of pain and inflammation with glucosamine and a cyclooxygenase-2 selective inhibitor and compositions therefor” (Pharmacia Corporation, priority 2001, published 2003).

Key:
knee osteoarthritis = conditions: patients with knee osteoarthritis, 1500 mg/day, 3 years

Row | Structure (SMILES) | selectivity for the inhibition of Cox-2 versus Cox-1 (Cox-2) | further results
1 | N[C@H]1C(O)O[C@H](CO)[C@@H](O)[C@@H]1O.O=S(=O)(O)O (stereo partly shown) [glucosamine sulfate] | – | joint-space loss (knee osteoarthritis): no significant joint-space loss
2 | CC1(C)CC[C@]2(C(=O)O)CC[C@]3(C)C(=CC[C@@H]4[C@@]5(C)CC[C@H](O)C(C)(C)[C@@H]5CC[C@]43C)[C@@H]2C1 [oleanic acid] | not substantially more selective for the inhibition of Cox-2 than for Cox-1 | –
3 | C[C@H]1[C@H](C)CC[C@]2(C(=O)O)CC[C@]3(C)C(=CC[C@@H]4[C@@]5(C)CC[C@H](O)C(C)(C)[C@@H]5CC[C@]43C)[C@H]12 [ursolic acid] | not substantially more selective for the inhibition of Cox-2 than for Cox-1 | –
4 | CC(=O)N[C@H]1C(O)O[C@H](CO)[C@@H](O)[C@@H]1O (stereo partly shown) [N-acetylglucosamine] | – | effect on il-1beta-mediated activation of human chondrocytes (human chondrocytes): prevent il-1beta-mediated activation of human chondrocytes
